Measurements as given in patent publication US20220226586A1, “An Inhaler For Electronically Supervised Parenteral Administration of a Pharmaceutical Composition” (Celon Pharma S.A., priority 2019, published 2022).
Structures can show the parent of a compound that is named as a salt.

What was measured:
NMDA receptor = conditions: cited from earlier work
[1] = cited from earlier work
[2] = cited from earlier work; remark: listed apart in the source
[3] = Pharmacokinetics of inhaled esketamine dry powder in healthy volunteers; type: in vivo; conditions: overall conclusion
Experimental: Esketamine hydrochloride dry powder formulation of Example 2 was administered to healthy volunteers pulmonary, i.e. directly to the lungs using dry powder inhaler (DPI) (by self-administration).
One puff of dry powder formulation contained 4.6 mg of esketamine hydrochloride, corresponding to 4 mg of esketamine free base and excipients 18.22 mg of lactose monohydrate and 0.18 mg of magnesium stearate.
A single dose was an inhalation events consisting of 1 to 6 puffs, i.e. 4 to 24 mg of esketamine free base nominal dose.
In part A of the study, designed as a one-centre single ascending dose, the medicine was delivered in a single dose once daily (up to 6 consecutive puffs) to 18 healthy volunteer subjects. Subjects were divided into 6 cohorts, cohorts receiving 1, 2, 3, 4, 5 or 6 puffs in a single doses (inhalation events), respectively.
Collection of blood samples for determination of esketamine and esnorketamine concentration and calculation of pharmacokinetic parameters was performed for up 24 hours following the start of the test.
The aim of the study was to determine the amount of puffs needed to obtain plasma concentration similar to that sufficient to achieve antidepressant effect as for 0.20 mg/kg 40 minutes intravenous infusion. It can be predicted on the basis of literature data that this corresponds to concentration at 40 min of infusion between about 60 to 100 ng/ml. […]

[4] = tested on: treatment-resistant depression; conditions: cited from earlier work
[5] = nebulized saline solution, inhalation; cited from earlier work
[6] = after intravenous infusion of racemic ketamine
[7] = after oral administration of ketamine

## NC1(c2ccccc2Cl)CCCCC1=O (stereo not drawn) [norketamine]
NMDA receptor
  activity on NMDA receptor relative to ketamine: many times less active than ketamine
[1]; [6]
  maximum concentration as % of ketamine concentration: 10-20%
  percentage of AUC norketamine to ketamine: 20-40%
[2]; [7]
  AUC relative to ketamine: exceeding 1000%
  level as % of ketamine level: 500-1000%

## CN[C@]1(c2ccccc2Cl)CCCCC1=O [esketamine]
[3]
  plasma concentration profile after pulmonary administration: quite smooth, consistent with a target profile and safe for chronic administration
[4]; 40-minute i.v. infusion of 0.20 mg/kg or 0.40 mg/kg (Singh et al.)
  antidepressant effect in TRD patients: rapid onset of robust antidepressant effects

## CN[C@]1(c2ccccc2Cl)CCCCC1=O [esketamine hydrochloride]
[5]
  inhaled bioavailability: reduced

## CNC1(c2ccccc2Cl)CCCCC1=O (racemic) [ketamine]
[4]; human, in vivo
  fraction of patients with treatment-resistant depression responsive to treatment: about 2/3
[1]; after intravenous infusion 0.5 mg/kg for 40 minutes
  half-period of concentration fall: below 2 hours
[1]; intravenous infusion 0.5 mg/kg for 40 minutes, maintained for about 40 minutes
  systemic concentration of parent drug: about 200 ng/ml
[2]; orally administered
  bioavailability: 16-20%
